Results from patent US6872850B2, “Small molecule inhibitors of secretion of proteins encoded by ARE-mRNAs” (Message Pharmaceuticals, priority 2001, dated 2005).
“Also recorded” adds a separate entry of the source.

Tests used:
TNFα = experiment: ELISA of TNFα secreted into the media after LPS; format: cell-based; conditions: for effect on amount of secreted TNFα (direct TNFα secretion assay), in words: after LPS stimulation
Procedure: The ability of candidate compounds to reduce the amount of secreted TNFα was also directly tested using an ELISA assay. […] A standard ELISA analysis was used to measure the amount of TNFα secreted into the media (see, for example, Ausubel et al., supra). The effect of a candidate compound on TNFα secretion in this assay is reported in the following tables as a percentage of the amount of TNFα secreted by a control cell that was administered a DMSO vehicle control only.

3′ UTR of the TNFα gene = experiment: cell-based luciferase reporter assay, 5B cell line (luciferase gene with entire 3′ UTR of the TNFα gene); set-up: species or system mouse; conditions: for Luciferase 5B (% of DMSO control): 1 h, then LPS, 5B cell line
Procedure: The candidate compounds were tested in a high-throughput, cell-based luciferase reporter assay. For this assay, a commercially available mouse macrophage Raw 264.7 cell line was stably transfected with a construct containing the CMV promoter operably linked to the luciferase gene which was modified using standard molecular biology techniques to contain the entire 3′ UTR of the TNFα gene. This 3′ UTR is important for the stability and translation of TNFα in cells. To control for effects of candidate compounds that are not specific for TNFα, a control cell line, called “3B,” was generated by stably transfecting the 264.7 cell line with a commercially available construct containing the luciferase gene (without the addition of the heterologous 3′ UTR of the TNFα gene) under the regulation of the CMV promoter.
[…] Then, lipopolysaccharide (LPS) was added to stimulate TNFα secretion. Luciferase activity was measured by determining the luminescence intensity due to the reaction of lucifern, ATP, Mg^2+, and molecular O2 (see, for example, Ausubel et al., supra). The luciferase activity in a cell incubated with a candidate compound was reported as a percentage of the luciferase activity for the corresponding cell incubated with DMSO vehicle only.
After correction for any effect caused by the administration of the DMSO only vehicle control, the effect of a candidate compound on luciferase activity in the 3B control cell line represents the global effect of the compound on any step required for expression or activity of luciferase protein, such as luciferase gene transcription, mRNA processing, mRNA stability, translation, protein stability, or enzymatic activity. […] In this case, the luciferase activity in the 5B cell line treated with the DMSO vehicle control is similar to the luciferase activity in the control 3B cell line treated with the candidate compound. Thus, the response of the 5B cell line (as a percent of the DMSO control) and the ratio of the luciferase activity in the 5B cell line (as a percent of the DMSO control) to the luciferase activity in the control 3B cell line (as a percent of the DMSO control) are similar. In desirable embodiments, the response of the 5B cell line and the 5B/3B ratio differ by less than 50, 40, 30, 20, 10, or 5%.

[1] = 10 μM compound, ratio of 5B to control 3B cell line

SMILES | TNFα Secretion (% of DMSO control) (TNFα; 10 μM compound, 1 h, then LPS) | Luciferase 5B (% of DMSO control) (3′ UTR of the TNFα gene; 10 μM compound) | Luciferase 5B/3B (% of DMSO control 5B)/(% of DMSO control 3B) (3′ UTR of the TNFα gene; [1]) | other results
CC(=NNC(=N)N)c1cccc(C(=O)NC(CC(C)C)C(=O)N2CCN(C(=O)C(Cc3ccc(Cl)cc3)NC(=O)c3ccc(C(=NNC(=N)N)c4ccccc4)cc3)CC2)c1 (mixture of isomers) [MES 10258] | 42 % of DMSO control | 43 % of DMSO control | 39 (% of DMSO control 5B)/(% of DMSO control 3B) | –
CC(=NNC(=N)N)c1cccc(C(=O)NC(CC(C)C)C(=O)N2CCN(C(=O)C(Cc3ccc(-c4ccccc4)cc3)NC(=O)c3ccc(C(=NNC(=N)N)c4ccccc4)cc3)CC2)c1 (mixture of isomers) [MES 10259] | 36 % of DMSO control | 22 % of DMSO control | 38 (% of DMSO control 5B)/(% of DMSO control 3B) | –
CC(=NNC(=N)N)c1cccc(C(=O)NC(CC(C)C)C(=O)N2CCN(C(=O)C(Cc3ccc4ccccc4c3)NC(=O)c3ccc(C(=NNC(=N)N)c4ccccc4)cc3)CC2)c1 (mixture of isomers) [MES 10261] | 40 % of DMSO control | 76 % of DMSO control | 71 (% of DMSO control 5B)/(% of DMSO control 3B) | –
CC(=NN=C(N)N)c1cccc(C(=O)NC(Cc2ccccc2)C(=O)N2CCN(C(=O)C(CC(C)C)NC(=O)c3ccc(C(=NN=C(N)N)c4ccccc4)cc3)CC2)c1 (mixture of isomers) [MES 11405] | 55 % of DMSO control | 39 % of DMSO control | 49 (% of DMSO control 5B)/(% of D | effect on amount of secreted TNFα (direct TNFα secretion assay), in words (TNFα): decreased the amount of secreted TNFα; effect on luciferase activity in the 5B cell line (luciferase assay), in words (3′ UTR of the TNFα gene): decrease TNFα secretion
CC(=NNC(=N)N)c1ccc(C(=O)NC(Cc2ccccc2)C(=O)N2CCN(C(=O)C(CC(C)C)NC(=O)c3cccc(C(C)=NNC(=N)N)c3)CC2)cc1 (mixture of isomers) [MES 11452] | 88 % of DMSO control | 13 % of DMSO control | 50 (% of DMSO control 5B)/(% of D | effect on amount of secreted TNFα (direct TNFα secretion assay), in words (TNFα): decreased the amount of secreted TNFα
CC(C)CC(NC(=O)c1ccc(C(=NN=C(N)N)c2ccccc2)cc1)C(=O)NCCCNC(=O)C(Cc1ccccc1)NC(=O)c1ccc(C(=NN=C(N)N)c2ccccc2)cc1 (mixture of isomers) [MES 11561] | 41 % of DMSO control | 24 % of DMSO control | 26 (% of DMSO control 5B)/(% of D | effect on amount of secreted TNFα (direct TNFα secretion assay), in words (TNFα): decreased the amount of secreted TNFα; effect on luciferase activity in the 5B cell line (luciferase assay), in words (3′ UTR of the TNFα gene): decrease TNFα secretion; also recorded: greatest inhibition
CC(=NN=C(N)N)c1cccc(C(=O)NC(CC(C)C)C(=O)NCCCNC(=O)C(Cc2ccccc2)NC(=O)c2ccc(C(=NN=C(N)N)c3ccccc3)cc2)c1 (mixture of isomers) [MES 11562] | 50 % of DMSO control | 44 % of DMSO control | 38 (% of DMSO control 5B)/(% of D | effect on amount of secreted TNFα (direct TNFα secretion assay), in words (TNFα): decreased the amount of secreted TNFα; effect on luciferase activity in the 5B cell line (luciferase assay), in words (3′ UTR of the TNFα gene): decrease TNFα secretion
C/C(=N\N=C(N)N)c1cccc(C(=O)NCCNC(=O)[C@H](Cc2ccccc2)NC(=O)c2ccc(/C(=N/N=C(N)N)c3ccccc3)cc2)c1.O=C(O)C(F)(F)F.O=C(O)C(F)(F)F [MES 10091, (E,E)-Bisguanylhydrazone of 1-[(S)-N-(4-benzoylbenzoyl)-2-amino-3-phenylpropanoyl]-4-(3-acetylbenzoyl)-1,4-diazabutane bis trifluoroacetate] | – | – | – | TNFα Secretion (% of DMSO control) (TNFα; 1 μM compound (Table 11)): 97 % of DM80 control; TNFα Secretion (% of DMSO control) (TNFα; 3 μM compound (Table 11)): 41 % of DM80 control; TNFα Secretion (% of DMSO control) (TNFα; 10 μM compound (Table 11)): 22 % of DM80 control; Luciferase 5B/3B (% of DMSO control 5B)/(% of DMSO control 3B) (3′ UTR of the TNFα gene; 1 μM compound (Table 11)): 113 (% of DMSO control 5B)/(% of D; Luciferase 5B/3B (% of DMSO control 5B)/(% of DMSO control 3B) (3′ UTR of the TNFα gene; 3 μM compound (Table 11)): 68 (% of DMSO control 5B)/(% of D; Luciferase 5B/3B (% of DMSO control 5B)/(% of DMSO control 3B) (3′ UTR of the TNFα gene; 10 μM compound (Table 11)): 73 (% of DMSO control 5B)/(% of D
C/C(=N\N=C(N)N)c1cccc(C(=O)NCCNC(=O)[C@H](Cc2ccccc2)NC(=O)c2ccc(/C(=N\N=C(N)N)c3ccccc3)cc2)c1.O=C(O)C(F)(F)F.O=C(O)C(F)(F)F [MES 10092, (1-Z,4-E)-Bisguanylhydrazone of 1-[(S)-N-(4-benzoylbenzoyl)-2-amino-3-phenylpropanoyl]-4-(3-acetylbenzoyl)-1,4-diazabutane bis trifluoroacetate] | – | – | – | TNFα Secretion (% of DMSO control) (TNFα; 1 μM compound (Table 11)): 108 % of DM80 control; TNFα Secretion (% of DMSO control) (TNFα; 3 μM compound (Table 11)): 81 % of DM80 control; TNFα Secretion (% of DMSO control) (TNFα; 10 μM compound (Table 11)): 107 % of DM80 control; Luciferase 5B/3B (% of DMSO control 5B)/(% of DMSO control 3B) (3′ UTR of the TNFα gene; 1 μM compound (Table 11)): 100 (% of DMSO control 5B)/(% of D; Luciferase 5B/3B (% of DMSO control 5B)/(% of DMSO control 3B) (3′ UTR of the TNFα gene; 3 μM compound (Table 11)): 78 (% of DMSO control 5B)/(% of D; Luciferase 5B/3B (% of DMSO control 5B)/(% of DMSO control 3B) (3′ UTR of the TNFα gene; 10 μM compound (Table 11)): 69 (% of DMSO control 5B)/(% of D
CC(C)C[C@H](NC(=O)c1ccc(C(=NNC(=N)N)c2ccccc2)cc1)C(=O)N1CCN(C(=O)[C@H](Cc2ccccc2)NC(=O)c2ccc(C(=O)c3ccccc3)cc2)CC1.O=C(O)C(F)(F)F [MES 10168, (4-E)-Guanylhydrazone of 1-[(S)-N-(4-benzoylbenzoyl)-2-amino-3-phenylpropanoyl]-4-[(2S)-N-(4-benzoylbenzoyl)-2-amino-4-methylpentanoyl]-1,4-piperazine trifluoroacetate] | 35 % of DMSO control | 104 % of DMSO control | 127 (% of DMSO control 5B)/(% of DMSO control 3B) | –
CC(=NNC(=N)N)c1cccc(C(=O)N[C@@H](CC(C)C)C(=O)N2CCN(C(=O)[C@H](Cc3ccccc3)NC(=O)c3ccc(C(=O)c4ccccc4)cc3)CC2)c1.O=C(O)C(F)(F)F [MES 10173, (4-E)-Guanylhydrazone of 1-[(S)-N-(4-benzoylbenzoyl)-2-amino-3-phenylpropanoyl]-4-[(2S)-N-(3-acetylbenzoyl)-2-amino-4-methylpentanoyl]-piperazine trifluoroaceteate] | 42 % of DMSO control | 26 % of DMSO control | – | –
O=C(N[C@@H](Cc1ccccc1)C(=O)N1CCN(C(=O)CCC(=O)N2CCN(c3ccccc3)CC2)CC1)c1ccc(C(=O)c2ccccc2)cc1 [MES 10229] | 65 % of DMSO control | 31 % of DMSO control | 49 (% of DMSO control 5B)/(% of D | –
CC(C)C[C@H](NC(=O)c1ccc(C(=O)c2ccccc2)cc1)C(=O)N1CCN(C(=O)CCC(=O)N2CCN(c3ccccc3)CC2)CC1 [MES 10230] | 77 % of DMSO control | 41 % of DMSO control | 52 (% of DMSO control 5B)/(% of D | –
C/C(=N\NC(=N)N)c1cccc(C(=O)N[C@@H](CC(C)C)C(=O)N2CCN(C(=O)[C@H](Cc3ccccc3)NCc3ccccc3)CC2)c1 [MES 10241] | 100 % of DMSO control | 68 % of DMSO control | 90 (% of DMSO control 5B)/(% of D | –
C/C(=N\NC(=N)N)c1cccc(C(=O)N[C@@H](CC(C)C)C(=O)N2CCN(C(=O)[C@H](Cc3ccccc3)NCc3ccc(I)cc3)CC2)c1 [MES 10242] | 67 % of DMSO control | 53 % of DMSO control | 50 (% of DMSO control 5B)/(% of D | –
